The text below walks through data of patent US20030229134A1, “Methods for stimulating nervous system regeneration and repair by inhibiting phosphodiesterase type 4” (priority 2000, published 2003).

Data set [1] has as its system rats with moderate spinal cord contusion. The experiment in a line: Moderate contusive injury to the spinal cord; BBB test of hindlimb locomotion. The format is in vivo, rat. An excerpt:
(§1) A “BBB Score” is the result of a test developed by Basso, Beattie and Bresnahan as a modifed 21-point open field locomoter scale on which to measure the extent of recovery of motor function in rats with after spinal cord injury. See, e.g, Basso et al., J. Neurotrauma 13(7):343-59 (1996); Beattie et al. (1997), herein incorporated by reference.
Adult rat spinal cord were exposed and injured with a weight drop device (NYU). See Beattie et al. (1997) and Basso et al. (1996). At the same time as the injury was inflicted, rolipram was delivered subcutaneously via minipumps at 0.07 nmol/kg/hour for 2 weeks. One week after injury, Schwann cells, which had been grown and purified in culture, were injected into the lesion site along with 4 injections, each of 0.2 ul, of 1 mM dbcAMP. As a negative control, animals were injected with Schwann cells alone. Other animals were administered dbcAMP and Schwann cells. One group of animals was administered four injections, each of 0.2 ul, of 1 mM dbcAMP one week after injury. Another group was administered four injections, each of 0.2 ul, of 50 mM dbcAMP one week after injury. Another group was administered four injections, each of 0.2 ul, of 50 mM dbcAMP one day after injury. Animals were assessed on a weekly basis for hindlimb locomotion using the BBB test.

Data set [2] relates to DRG neurons on MAG-expressing CHO cells. The experiment in a line: Continuous subcutaneous rolipram delivery by minipumps to P30 rats; neurite outgrowth of isolated DRG neurons on MAG-expressing CHO cells. Particulars: for axonal outgrowth in the presence of MAG and on control CHO cells: minipump 0.4 umol/kg/hour. The format is in vivo, rat. The procedure:
Rolipram was delivered subcutaneously with ALZET 2001 minipumps. Minipumps were inserted subcutaneously under the skin of the animals' backs. Two minipumps were used for each animal; the combined flow rate was 2 ul/hour. Rolipram was dissolved in DMSO and sterile saline was added to adjust the doses of rolipram that were released from minipumps every hour. After 24 hours of treatment, DRG neurons were isolated from control and treated animals and plated onto a monolayer of MAG-expressing CHO cells or a monolayer of control CHO cells. Neurons were cultured overnight before being fixed and immunostained for GAP43 to visualize the neurites. The length of the longest neurite per neuron from 180-200 neurons was measured. Results are expressed as a percentage of growth of the neurons isolated from control animals and are shown as the average length+/−SEM presented as percentage of growth on control cells.
In order to determine whether longer continuous treatment with a PDE4 inhibitor would increase the relief of inhibition of neurite outgrowth by myelin or MAG, rolipram was administered subcutaneously by minipump (0.4 umol/kg/hour). After 1, 2 or 3 days of continuous rolipram treatment, DRG neurons were isolated from control and treated animals and plated onto a monolayer of MAG-expressing CHO cells or a monolayer of control CHO cells. Neurons were cultured overnight before being fixed and immunostained for GAP43 to visualize the neurites. The length of the longest neurite per neuron from 180-200 neurons was measured. Results are expressed as a percentage of growth of the neurons isolated from control animals and are shown as the average length+/−SEM, presented as a percentage of growth on control cells.

Data set [3] shares this test system. Briefly: Subcutaneous rolipram injections into P30 rats; neurite outgrowth of isolated DRG neurons on MAG-expressing CHO cells. The format is in vivo, rat. Here is the method: In order to determine whether a PDE4 specific inhibitor could be used to prime neurons in vivo and prevent inhibition of neurite outgrowth by myelin and MAG, rolipram was injected subcutaneously into P12 and P30 rats every 3 hours for 24 hours. For all experiments, rolipram was dissolved in DMSO and sterile saline was added to adjust the concentrations. The final volume of the rolipram solution was 0.2 ml for each injection. At each time point, a single rolipram injection was given. Rolipram was injected subcutaneously with insulin syringes (Becton Dickinson 1 ccU-100 insulin Syringe) under the skin of the rat's neck (for all experiments) and in various other regions (only for first experiment using P12 rats). Control animals were injected with a 0.2 ml mixture of DMSO and sterile saline without rolipram, following the same schedule.
In a second series of experiments, we injected increasing concentrations of rolipram subcutaneously into older animals (postnatal day 30; P30) every 3 hours for 24 hours and, as above, studied neurite outgrowth of isolated DRG neurons in the presence or absence of MAG.
DRG neurons were isolated from control and treated P30 animals and plated onto a monolayer of MAG-expressing CHO cells or a monolayer of control CHO cells. Neurons were cultured overnight before being fixed and immunostained for GAP43 to visualize the neurites, as described in Example 1. The length of the longest neurite per neuron from 180-200 neurons was measured. Results are expressed as a percentage of growth of the neurons isolated from control animals and are shown as the average length+/−SEM presented as a percentage of growth on control cells.
We next determined whether the effects of rolipram were time dependent. Rolipram (0.5 umol/kg) was administered by repeated subcutaneous injections to P30 rats for increasing amounts of time. DRG neurons were isolated from control and treated animals and plated onto a monolayer of MAG-expressing CHO cells or a monolayer of control CHO cells. Neurons were cultured overnight before being fixed and immunostained for GAP43 to visualize the neurites. The lengths of the longest neurite per neuron from 180-200 neurons were measured. Results are expressed as a percentage of growth of the neurons isolated from control animals and are shown as the average length+/−SEM presented as percentage of growth on control cells.

Data set [4] concerns animal model for multiple sclerosis. To be noted: cited from earlier work.
In another data set the test system is rats. To be noted: cited from earlier work.
Data set [5] deals with rats with complete spinal cord transection. The experiment in a line: Complete transection of the spinal cord with Schwann cell bridge; BBB test of hindlimb locomotion. The format is in vivo, rat.
Source text: as §1
Adult rat spinal cords were completely transected at the T8 cord level and the next caudal segment was removed (Xu et al. (1997), herein incorporated by reference). Schwann cells were purified in culture from adult rat sciatic nerve, suspended in Matrigel: DMEM (30:70), and drawn into 8 mm long polymeric guidance channels at a density of 120×10^6 cells/ml. Xu et al. (1997). Each cut stump was inserted 1 mm into the channel. At the time of transection, a Schwann cell bridge was implanted at the injury site and rolipram was delivered subcutaneously via minipump at 0.07 umol/kg/hour for two weeks as described in Example 3B. As a negative control, animals were delivered saline only. As a positive control, 5 ul of 10 mM dbcAMP was infused in the proximal and distal stump of the lesion in animals. Animals were assessed on a weekly basis for hindlimb locomotion, which is a measure of their motor recovery, using the BBB test.

Another data set deals with rat model of arthritis. Particulars: higher concentrations (5-10 and 20 umol/kg), rats; cited from earlier work.

For `COc1ccc(C2CNC(=O)C2)cc1OC1CCCC1` (stereo not drawn) [rolipram], in data set [1] (adult rats, minipump s.c. 0.07 nmol/kg/hour for 2 weeks plus Schwann cells and 4 injections of 1 mM dbcAMP one week after injury, from 2 up to 7 weeks after injury), the “motor skill recovery as measured by the BBB score” value was “significantly improved”. In addition, in data set [1] (continuous rolipram plus Schwann cells and dbcAMP, greater than 15 is scored as complete recovery), the BBB score achieved result is recorded as “greater than 15”. Besides, the “axonal outgrowth in the presence of MAG and on control CHO cells” value in data set [2] (2 days) was “significantly promoted”; in data set [2] (3 days), “even further promoted”. For the same molecule, the “optimal continuous dose for subsequent neuronal growth and regeneration” value in data set [2] (s.c. minipump, 0.4, 0.5, 0.7 umol/kg/hour tested) came out at 0.4 µmol/kg/h. In data set [2] (s.c. minipump, 24 hours), the “inhibition of DRG neurons by MAG after 24 hours of continuous treatment” value was “no longer inhibited by MAG”. The “length of the neurites, 1, 2 and 3 days of treatment compared” value in data set [3] (0.5 umol/kg intermittent s.c. injections every three hours) is recorded as “no significant difference”. In data set [3] (0.5 umol/kg repeated s.c. injections, FIG. 5), the “length of the axons of DRG neurons, 24 hours treatment in comparison to 6 hours” value is recorded as “increased”. Further, the “inhibition of axonal outgrowth by MAG” value in data set [3] (0.1-2.0 umol/kg s.c. every 3 hours for 24 hours, FIG. 4) is reported as “blocked (i.e., relieved) by rolipram in a dose-dependent manner”. The “most effective subcutaneous dose for relieving MAG inhibition” value in data set [3] (s.c. every 3 hours for 24 hours) turned out to be 0.5 µmol/kg. In addition, in data set [4], the anti-inflammatory effect entry is listed as “demonstrated”. The “concentrations at which sedative effects were demonstrated” value in the data set with rats was 5 to 10 µmol/kg. In data set [5] (adult rats, complete transection at T8, Schwann cell bridge, minipump s.c. 0.07 umol/kg/hour for two weeks, vs saline), the “BBB score (motor recovery)” value is recorded as “significantly increases”. Further, the “BBB score compared with administration of dbcAMP” value in data set [5] (rolipram 0.07 umol/kg/hour s.c., dbcAMP 5 ul of 10 mM infused in the stumps) is reported as “essentially the same result”. The side effects result in the data set on rat model of arthritis was “No side effects”.
